Measurements: ChEMBL document CHEMBL5120890, “Untapped Pharmaceutical Potential of 4,5,4'-Trihydroxy-3,3'-dimethoxybibenzyl for Regulating Obesity: A Cell-Based Study with a Focus on Terminal Differentiation in Adipogenesis” (J Nat Prod, 2022)
Activity calls are given as the source filed them. The rule behind the calls is not given here.

Experiments:
[1] = system: 3T3-L1; assay: Down regulation of FABP4 protein expression in mouse 3T3-L1 cells in early differentiation at 0.5 to 5 uM after 8 days by western blot analysis; type: functional, cell-based; conditions: dose 0.5-5 µM, time 8.0 day
[2] = system: 3T3-L1; assay: Effect on Cyclin D3 protein expression in mouse 3T3-L1 cells at 0.5 to 5 uM after 18 hrs by western blot analysis; type: functional, cell-based; conditions: dose 0.5-5 µM
[3] = system: 3T3-L1; assay: Cytotoxicity against mouse 3T3-L1 pre-adipocytes assessed as reduction in cell viability at >=10 uM after 48 hrs by MTT assay; type: toxicity, cell-based; conditions: 3t3-l1, 48 h
[4] = system: 3T3-L1; assay: Down regulation of CDK6 protein expression in mouse 3T3-L1 cells at 0.5 to 5 uM after 18 hrs by western blot analysis; type: functional, cell-based; conditions: dose 0.5-5 µM
[5] = system: 3T3-L1; assay: Inhibition of preadipocyte differentiation in mouse 3T3-L1 cells assessed as reduction in triglyceride accumulation in early differentiation at 0.5 to 5 uM incubated for 8 days by colorimetric assay; type: functional, cell-based; conditions: dose 0.5-5 µM, time 8.0 day, DDE = dose-dependent effect
[6] = target: 5'-AMP-activated protein kinase (Mus musculus) (UniProt Q5EG47+Q8BRK8+Q6PAM0+O54950+Q91WG5+Q9R078+Q8BGM7); assay: Activation of AMPK in mouse 3T3-L1 cells assessed as increase in AMPKalpha phosphorylation in early differentiation at 0.5 to 5 uM after 48 hrs by Western blot analysis; type: cell-based; conditions: filed as activator, dose 0.5-5 µM
[7] = system: PCS-210-010; assay: Inhibition of preadipocyte differentiation in human PCS-210-010 cells assessed as increase in glycerol release in maturation at 0.5 to 5 uM incubated for 8 days by colorimetric assay; type: functional, cell-based; conditions: dose 0.5-5 µM, time 8.0 day, DDE = dose-dependent effect
[8] = system: 3T3-L1; assay: Inhibition of AKT/GSK3beta signalling pathway in mouse 3T3-L1 cells assessed as reduction in GSK3beta phosphorylation in maturation at 0.5 to 5 uM after 48 hrs by Western blot analysis; type: cell-based; conditions: dose 0.5-5 µM
[9] = system: PCS-210-010; assay: Inhibition of preadipocyte differentiation in human PCS-210-010 cells assessed as reduction in triglyceride accumulation in early differentiation at 0.5 to 5 uM incubated for 8 days by colorimetric assay; type: functional, cell-based; conditions: dose 0.5-5 µM, time 8.0 day, DDE = dose-dependent effect
[10] = system: PCS-210-010; assay: Inhibition of preadipocyte differentiation in human PCS-210-010 cells assessed as reduction in lipid droplet accumulation in early differentiation at 0.5 to 5 uM incubated for 8 days by Oil Red O staining based inverted optical microscopic analysis; type: functional, cell-based; conditions: dose 0.5-5 µM, time 8.0 day
[11] = target: RAC-alpha serine/threonine-protein kinase (Mus musculus) (UniProt P31750); assay: Inhibition of AKT in mouse 3T3-L1 cells assessed as reduction in AKT phosphorylation in maturation at 0.5 to 5 uM after 48 hrs by Western blot analysis; type: cell-based; conditions: dose 0.5-5 µM
[12] = system: 3T3-L1; assay: Down regulation of Cyclin D1 protein expression in mouse 3T3-L1 cells at 0.5 to 5 uM after 18 hrs by western blot analysis; type: functional, cell-based; conditions: dose 0.5-5 µM
[13] = (§1) Cytotoxicity against mouse 3T3-L1 pre-adipocytes assessed as reduction in cell viability after 48 hrs by MTT assay; type: toxicity, cell-based; conditions: 3T3-L1 pre-adipocytes
[14] = system: 3T3-L1; assay: as §1; type: toxicity, cell-based; conditions: 3t3-l1, 48 h, time 48 hrs
[15] = system: 3T3-L1; assay: Down regulation of FAS protein expression in mouse 3T3-L1 cells in maturation at 0.5 to 5 uM after 10 days by western blot analysis; type: functional, cell-based; conditions: dose 0.5-5 µM, time 10.0 day
[16] = system: 3T3-L1; assay: Down regulation of FABP4 mRNA expression in mouse 3T3-L1 cells in early differentiation at 0.5 to 5 uM after 8 days by RT-qPCR analysis; type: functional, cell-based; conditions: dose 0.5-5 µM, time 8.0 day
[17] = target: RAC-alpha serine/threonine-protein kinase (Mus musculus) (UniProt P31750); assay: Inhibition of AKT in mouse 3T3-L1 cells assessed as reduction in AKT phosphorylation in early differentiation at 0.5 to 5 uM after 48 hrs by Western blot analysis; type: cell-based; conditions: dose 0.5-5 µM
[18] = system: 3T3-L1; assay: Inhibition of preadipocyte differentiation in mouse 3T3-L1 cells assessed as reduction in lipid droplet accumulation in early differentiation at 0.5 to 5 uM incubated for 8 days by Oil Red O staining based inverted optical microscopic analysis; type: functional, cell-based; conditions: dose 0.5-5 µM, time 8.0 day
[19] = system: 3T3-L1; assay: Down regulation of PPARG protein expression in mouse 3T3-L1 cells at 0.5 to 5 uM after 48 hrs by western blot analysis; type: functional, cell-based; conditions: dose 0.5-5 µM, DDE = dose-dependent effect
[20] = system: 3T3-L1; assay: Down regulation of FAS mRNA expression in mouse 3T3-L1 cells in maturation at 0.5 to 5 uM after 10 days by RT-qPCR analysis; type: functional, cell-based; conditions: dose 0.5-5 µM, time 10.0 day
[21] = system: 3T3-L1; assay: Down regulation of FABP4 mRNA expression in mouse 3T3-L1 cells in maturation at 0.5 to 5 uM after 10 days by RT-qPCR analysis; type: functional, cell-based; conditions: dose 0.5-5 µM, time 10.0 day
[22] = system: 3T3-L1; assay: Inhibition of preadipocyte differentiation in mouse 3T3-L1 cells assessed as reduction in triglyceride accumulation in maturation at 0.5 to 5 uM incubated for 8 days by colorimetric assay; type: functional, cell-based; conditions: dose 0.5-5 µM, time 8.0 day, DDE = dose-dependent effect
[23] = system: 3T3-L1; assay: Upregulation of p27 protein expression in mouse 3T3-L1 cells at 0.5 to 5 uM after 18 hrs by western blot analysis; type: functional, cell-based; conditions: dose 0.5-5 µM
[24] = system: 3T3-L1; assay: Induction of apoptosis in mouse 3T3-L1 pre-adipocytes at 0.5 to 5 uM after 48 hrs by PI/Hoechst 33342 staining based fluorescence microscopic analysis; type: functional, cell-based; conditions: dose 0.5-5 µM
[25] = system: 3T3-L1; assay: Activation of AMPK-ACC signalling pathway in mouse 3T3-L1 cells assessed as increase in ACC phosphorylation in maturation at 0.5 to 5 uM after 48 hrs by Western blot analysis; type: cell-based; conditions: filed as activator, dose 0.5-5 µM
[26] = system: PCS-210-010; assay: Induction of apoptosis in human PCS-210-010 adipocytes at 0.5 to 5 uM after 48 hrs by PI/Hoechst 33342 staining based fluorescence microscopic analysis; type: functional, cell-based; conditions: dose 0.5-5 µM
[27] = Cytotoxicity against human PCS-210-010 pre-adipocytes assessed as reduction in cell viability after 48 hrs by MTT assay; type: toxicity, cell-based
[28] = system: 3T3-L1; assay: Down regulation of C/EBpalpha mRNA expression in mouse 3T3-L1 cells at 0.5 to 5 uM after 48 hrs by RT-qPCR analysis; type: functional, cell-based; conditions: dose 0.5-5 µM, DDE = dose-dependent effect
[29] = system: PCS-210-010; assay: Inhibition of preadipocyte differentiation in human PCS-210-010 cells assessed as reduction in lipid droplet accumulation in maturation at 0.5 to 5 uM incubated for 8 days by Oil Red O staining based inverted optical microscopic analysis; type: functional, cell-based; conditions: dose 0.5-5 µM, time 8.0 day
[30] = system: 3T3-L1; assay: Down regulation of LPL mRNA expression in mouse 3T3-L1 cells in early differentiation at 0.5 to 5 uM after 8 days by RT-qPCR analysis; type: functional, cell-based; conditions: dose 0.5-5 µM, time 8.0 day
[31] = system: 3T3-L1; assay: Down regulation of SREBP1 mRNA expression in mouse 3T3-L1 cells at 0.5 to 5 uM after 48 hrs by RT-qPCR analysis; type: functional, cell-based; conditions: dose 0.5-5 µM, DDE = dose-dependent effect
[32] = system: 3T3-L1; assay: Inhibition of AKT/GSK3beta signalling pathway in mouse 3T3-L1 cells assessed as reduction in GSK3beta phosphorylation in early differentiation at 0.5 to 5 uM after 48 hrs by Western blot analysis; type: cell-based; conditions: dose 0.5-5 µM
[33] = system: 3T3-L1; assay: Induction of apoptosis in mouse 3T3-L1 adipocytes at 0.5 to 5 uM after 48 hrs by PI/Hoechst 33342 staining based fluorescence microscopic analysis; type: functional, cell-based; conditions: dose 0.5-5 µM
[34] = system: 3T3-L1; assay: Down regulation of adiponectin protein expression in mouse 3T3-L1 cells in maturation at 0.5 to 5 uM after 10 days by western blot analysis; type: functional, cell-based; conditions: dose 0.5-5 µM, time 10.0 day

Chain of RAC-alpha serine/threonine-protein kinase (Mus musculus) (P31750 whole entry): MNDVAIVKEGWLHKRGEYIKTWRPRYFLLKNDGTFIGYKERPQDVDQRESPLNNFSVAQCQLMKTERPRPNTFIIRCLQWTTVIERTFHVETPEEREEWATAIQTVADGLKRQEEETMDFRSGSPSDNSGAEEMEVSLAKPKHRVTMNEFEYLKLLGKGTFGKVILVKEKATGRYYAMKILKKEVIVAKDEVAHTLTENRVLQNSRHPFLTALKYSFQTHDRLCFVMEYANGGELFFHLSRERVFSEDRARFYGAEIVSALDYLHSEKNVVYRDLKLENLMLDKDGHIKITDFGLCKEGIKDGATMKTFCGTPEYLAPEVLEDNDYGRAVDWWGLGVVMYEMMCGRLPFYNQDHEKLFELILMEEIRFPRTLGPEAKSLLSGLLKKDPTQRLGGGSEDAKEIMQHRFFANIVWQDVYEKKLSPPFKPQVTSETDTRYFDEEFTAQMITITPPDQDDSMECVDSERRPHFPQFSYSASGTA

With `COc1cc(CCc2cc(O)c(O)c(OC)c2)ccc1O` the Activity [1] was “Active”, the Activity [2] was “Active” and the Activity [3] was “Toxic”. For the same compound, the Activity [4] was “Active”, the inhibition [5] was “Dde” and the Activity [6] was “Active”. For the same compound, the inhibition [7] was “Dde”, the inhibition [8] was “Active” and the inhibition [9] was “Dde”. For the same compound, the inhibition [10] was “Active”, the inhibition [11] was “Active” and the Activity [12] was “Active”. The IC50 at 48 h [13] was 35.5 µM, the Activity [14] was “Toxic” and the Activity [15] was “Active”. For the same compound, the Activity [16] was “Active”, the inhibition [17] was “Active” and the inhibition [18] was “Active”. The Activity [19] was “Dde”, the Activity [20] was “Active” and the Activity [21] was “Active”. The inhibition [22] was “Dde”, the Activity [23] was “Active” and the Activity [24] was “Non-Toxic”. The Activity [25] was “Active”, the Activity [26] was “Non-Toxic” and the IC50 at 48 h ([27]; PCS-210-010 pre-adipocytes) was 34.6 µM. The Activity ([27]; pcs-210-010, 48 h, time 48 hrs) was “Toxic”, the Activity [28] was “Dde” and the inhibition [29] was “Active”. The Activity [30] was “Active”, the Activity [31] was “Dde” and the inhibition [32] was “Active”. For the same compound, the Activity [33] was “Non-Toxic” and the Activity [34] was “Active”.
